In ChEMBL document CHEMBL4715747 (Eur J Med Chem, 2016):
pIC50: −log10 of the molar value. Active and inactive are the calls of the source. No cut-off for these calls is given here.

What was measured:
[1] = test system: PLC-PRF-5; experiment: Antiproliferative activity against human PLC-PRF-5 cells after 48 hrs by MTT assay; conditions: PLC-PRF-5, 48 h
[2] = test system: KG-1; experiment: Antiproliferative activity against human KG1 cells after 48 hrs by MTT assay; conditions: KG-1, 48 h
[3] = test system: HepG2; experiment: Antiproliferative activity against human HepG2 cells after 48 hrs by MTT assay; conditions: HepG2, 48 h
[4] = Antiproliferative activity against human ES2 cells after 48 hrs by MTT assay; conditions: ES-2, 48 h
[5] = Toxicity in NOD/SCID mouse xenografted with human PLC-PRF-5 cells assessed as change in body weight at 100 to 120 mg/kg, po; format: organism-based; conditions: in vivo, dose 100-120 mg/kg
[6] = Toxicity in Kunming mouse transplanted with mouse H22 cells assessed as change in body weight at 40 to 80 mg/kg/day, po administered 5 days per week for 2 weeks; format: organism-based; conditions: in vivo, 336 h, dose 40-80 mg/kg/day
[7] = test system: HEL; experiment: cells; conditions: Homo sapiens, 48 h
Description: Antiproliferative activity against human HEL cells after 48 hrs by MTT assay

[8] = Prodrug conversion in human plasma assessed as release of active metabolites 5-FU and Ube measured within 30 mins at 37 degC; format: ADME, cell-free; conditions: 0.5 h
[9] = Toxicity in Kunming mouse transplanted with 5-FU-resistant mouse H22 cells assessed as change in body weight at 200 uM/kg/day, po administered daily for 14 days; format: organism-based; conditions: in vivo, 336 h, time 14 day
[10] = test system: HUVEC; experiment: Anti-angiogenesis activity in HUVEC assessed as inhibition of capillary like tube formation incubated for 6 hrs by matrigel based capillary tube formation assay; format: functional, cell-based; conditions: Homo sapiens, dose 10-30 µM
[11] = test system: Aorta; experiment: Anti-angiogenesis activity in Wistar rat thoracic aortic rings assessed as decrease in number of microvessels sprouting at 20 ug/ml treated every other day for 9 days; format: functional, tissue-based; conditions: dose 20.0 µg/ml, time 9.0 day
[12] = test system: H22; experiment: Antitumor activity against mouse H22 cells transplanted in Kunming mouse assessed as tumor growth inhibition at 80 mg/kg/day, iv administered 5 days per week for 2 weeks relative to treated combination of 5-FU and Ube; format: functional, organism-based
[13] = test system: A549; experiment: Antiproliferative activity against human A549 cells after 48 hrs by MTT assay; conditions: A549, 48 h
[14] = test system: HUVEC; experiment: Anti-angiogenesis activity in HUVEC assessed as inhibition of capillary like tube formation at 30 uM incubated for 6 hrs by matrigel based capillary tube formation assay; format: functional, Homo sapiens; set-up: scale not given: the % may be the effect or the level left
[15] = test system: H22; experiment: Antitumor activity against mouse H22 cells transplanted in orally dosed Kunming mouse assessed as tumor growth inhibition administered 5 days per week for 2 weeks; format: functional, organism-based; conditions: dose 40-80 mg/kg
[16] = test system: PLC-PRF-5; experiment: Antitumor activity against human PLC-PRF-5 cells xenografted in orally dosed NOD/SCID mouse assessed as tumor growth inhibition; format: functional, organism-based; conditions: dose 100-120 mg/kg
[17] = Antiproliferative activity against human H7402 cells after 48 hrs by MTT assay; conditions: H7402, 48 h
[18] = test system: H22; experiment: Antitumor activity against 5-FU-resistant mouse H22 cells transplanted in Kunming mouse assessed as tumor growth inhibition at 200 uM/kg/day, po administered for 14 days; format: functional, organism-based; conditions: time 14.0 day
[19] = test system: H22; experiment: Antitumor activity against mouse H22 cells transplanted in iv dosed Kunming mouse assessed as tumor growth inhibition administered 5 days per week for 2 weeks; format: functional, organism-based; conditions: dose 20-80 mg/kg
[20] = test system: MCF7; experiment: Antiproliferative activity against human MCF7 cells after 48 hrs by MTT assay; conditions: MCF7, 48 h
[21] = test system: H22; experiment: Antimetastatic activity against mouse H22 cells inoculated in orally dosed Kunming mouse assessed as reduction in lung metastatic nodes administered for 5 days starting from day 11 post inoculation and 2 days of withdrawal measured after 24 days; format: functional, organism-based; conditions: dose 80-100 mg/kg, time 5.0 day
[22] = target: T1, Aminopeptidase N (Sus scrofa, UniProt P15145); experiment: Inhibition of porcine kidney microsomal CD13 using L-leucine-p-nitroanilide as substrate preincubated for 5 mins followed by substrate addition and measured after 30 mins by microplate reader analysis; format: microsomes, Microsome
T1 sequence (P15145 whole entry): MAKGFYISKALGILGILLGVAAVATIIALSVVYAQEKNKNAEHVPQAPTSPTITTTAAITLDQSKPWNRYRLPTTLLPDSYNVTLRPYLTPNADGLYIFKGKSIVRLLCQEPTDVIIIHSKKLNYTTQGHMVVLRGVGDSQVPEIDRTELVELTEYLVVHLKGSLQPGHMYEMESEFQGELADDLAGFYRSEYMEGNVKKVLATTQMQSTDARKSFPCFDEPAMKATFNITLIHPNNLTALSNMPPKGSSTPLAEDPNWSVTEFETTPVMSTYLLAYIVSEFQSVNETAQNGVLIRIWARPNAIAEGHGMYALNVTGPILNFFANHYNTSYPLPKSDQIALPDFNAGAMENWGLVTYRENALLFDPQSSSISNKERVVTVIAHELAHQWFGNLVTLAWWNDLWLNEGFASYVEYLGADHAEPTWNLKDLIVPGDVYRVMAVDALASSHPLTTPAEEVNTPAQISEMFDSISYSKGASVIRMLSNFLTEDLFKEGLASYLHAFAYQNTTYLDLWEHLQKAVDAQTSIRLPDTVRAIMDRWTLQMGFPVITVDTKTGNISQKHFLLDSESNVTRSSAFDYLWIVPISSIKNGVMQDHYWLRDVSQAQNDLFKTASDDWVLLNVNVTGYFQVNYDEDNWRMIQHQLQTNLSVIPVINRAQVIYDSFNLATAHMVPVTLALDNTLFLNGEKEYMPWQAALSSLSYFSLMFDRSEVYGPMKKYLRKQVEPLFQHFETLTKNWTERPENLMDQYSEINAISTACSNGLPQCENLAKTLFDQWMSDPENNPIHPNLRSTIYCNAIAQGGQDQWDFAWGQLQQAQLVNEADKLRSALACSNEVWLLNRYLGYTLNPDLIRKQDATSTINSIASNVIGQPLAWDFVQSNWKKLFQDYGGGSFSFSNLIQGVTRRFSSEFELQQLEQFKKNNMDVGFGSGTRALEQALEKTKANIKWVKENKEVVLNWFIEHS

[23] = test system: MDA-MB-231; experiment: cells; conditions: Homo sapiens, MDA-MB-231, 48 h
Description: Antiproliferative activity against human MDA-MB-231 cells after 48 hrs by MTT assay

[24] = test system: HCT-116; experiment: Antiproliferative activity against human HCT-116 cells after 48 hrs by MTT assay; conditions: HCT-116, 48 h
[25] = test system: HeLa; experiment: Antiproliferative activity against human HeLa cells after 48 hrs by MTT assay
[26] = test system: H22; experiment: Antitumor activity against mouse H22 cells transplanted in Kunming mouse assessed as tumor growth inhibition at 80 mg/kg/day, po administered 5 days per week for 2 weeks; format: functional, organism-based
[27] = test system: PC-3; experiment: cells; conditions: Homo sapiens, PC-3, 48 h
Description: Antiproliferative activity against human PC-3 cells after 48 hrs by MTT assay

[28] = Antiproliferative activity against human 3AO cells after 48 hrs by MTT assay
[29] = Toxicity in Kunming mouse transplanted with mouse H22 cells assessed as side effects at 40 to 80 mg/kg/day, po administered 5 days per week for 2 weeks; format: organism-based; conditions: in vivo, 336 h, dose 40-80 mg/kg/day
[30] = Toxicity in BALB/c athymic nude mouse xenografted with human PLC-PRF-5 cells assessed as change in body weight at 20 to 80 mg/kg, iv; format: organism-based; conditions: in vivo, dose 20-80 mg/kg
[31] = test system: PLC-PRF-5; experiment: Antitumor activity against human PLC-PRF-5 cells xenografted in iv dosed BALB/c athymic nude mouse assessed as tumor growth inhibition; format: functional, organism-based; conditions: dose 20-80 mg/kg
[32] = test system: H22; experiment: Antitumor activity against mouse H22 cells transplanted in Kunming mouse assessed as tumor growth inhibition at 20 mg/kg/day, ip administered 5 days per week for 2 weeks; format: functional, organism-based
[33] = test system: H22; experiment: Antitumor activity against mouse H22 cells transplanted in Kunming mouse assessed as tumor growth inhibition at 100 mg/kg/day, po administered 5 days per week for 2 weeks; format: functional, organism-based

| Structure (SMILES) | pIC50 [1] | pIC50 [2] | pIC50 [3] | pIC50 [4] | pIC50 [7] | Activity [11] | pIC50 [17] | Activity [18] | pIC50 [20] | pIC50 [23] | pIC50 [24] | pIC50 [25] | pIC50 [27] | pIC50 [28] | further results |
| --- | --- | --- | --- | --- | --- | --- | --- | --- | --- | --- | --- | --- | --- | --- | --- |
| CC(C)C[C@H](NC(=O)[C@@H](O)[C@H](N)Cc1ccccc1)C(=O)OCn1cc(F)c(=O)[nH]c1=O.Cl | 4.76 | 4.51 | 5.13 | 4.64 | 5.04 | Active | 4.94 | Active | 4.72 | 4.98 | 4.83 | 5.14 | 4.61 | 4.59 | Activity [5]: Non-Toxic; Activity [6]: Non-Toxic; Drug metabolism [8]: Metabolite_Detected; Activity [9]: Non-Toxic; Activity [10]: Dose-dependent effect; Activity [12]: Active; pIC50 [13]: 5.25; Activity [14]: 100%; Activity [15]: Dose-dependent effect; Activity [16]: Dose-dependent effect; Activity [19]: Dose-dependent effect; Activity [21]: Dose-dependent effect; pIC50 [22]: 5.16; Activity [26]: Active; Activity [29]: Non-Toxic; Activity [30]: Non-Toxic; Activity [31]: Dose-dependent effect |
| O=c1[nH]cc(F)c(=O)[nH]1 [FLUOROURACIL] | 4.42 | 4.08 | 4.87 | 4.03 | 4.49 |  | 4.54 | inactive | 4.15 | 4.65 | 4.07 | 3.88 | 3.97 | 4.22 | Activity [32]: Active |
| CC(C)C[C@H](NC(=O)[C@@H](O)[C@H](N)Cc1ccccc1)C(=O)O [UBENIMEX] | < 3.30 | < 3.30 | < 3.30 | < 3.30 | 3.38 | Active | < 3.30 |  | < 3.30 | < 3.30 | 3.50 | < 3.30 |  | < 3.30 | Activity ([14]; Homo sapiens): Active |
| CCCCCOC(=O)Nc1nc(=O)n([C@@H]2O[C@H](C)[C@@H](O)[C@H]2O)cc1F |  |  |  |  |  |  |  |  |  |  |  |  |  |  | Activity [33]: Active |
